Experimental data as given in patent US20110318798A1, “REMOVAL OF INHIBITORS OF MICROBIAL FE[…] INHIBITOR-CONTAINING COMPOSITIONS” (priority 2010, published 2011).

Columns and labels:
Clostridium = details: in the fermentation medium
[1] = system: butanol-producing Clostridium strain; type: cell-based

Row | Compound | concentration at which it becomes inhibitory to growth of Clostridium and subsequent production of butanol (Clostridium) [g/L] | transformation of un-fermentable hydrolysate into fermentable feedstock supporting microbial growth and butanol production ([1]; 2 g/L to 5 g/L metal salt, pH 9 to 10.5, 20° C. to 40° C.) | butanol concentration after microbial fermentation for 72 hours ([1]; hydrolysate treated with 3 g/L […] or 2 g/l ferric chloride, pH 9.5, room temperature (about 20° C.), fermentation 10 ml, 30° C.) [g/L]
1 | O=CO [Formic acid] | 0.3 to 0.4 |  | 
2 | [Cl][Fe]([Cl])[Cl] [ferric chloride] |  | successful | 7.69
